In US12180235B1, “Fabrication of novel nano-sized [4{3,4-bis-[(5-bromo-2-hydroxy-benzylidene)-amino]-phenyl }-phenyl-methanone] Ru(III) complex for pharmaceutical applications” (KING FAISAL UNIVERSITY, priority 2024, dated 2024):
Converted amounts (≈) assume the structure as drawn. Like-named read-outs stand apart in the source and are kept apart here.

Assays:
Assay type in all cases: cell-based
[1] = test system: Aspergillus Flavus; test: Antifungal screening, well diffusion method; settings: 35° C. for 7 days
Method: Antifungal activities of the prepared nano-complex were studied against three fungal cultures using well diffusion method. The tested fungi were inoculated in Sabouraud dextrose broth medium (Hi-Media Mumbai) and incubated at 35° C. for 72 h and subsequently a suspension of about 1.60×10^4-6.00×10^4 c.f.u/ml was introduced agar plates and a sterile glass spreader was used for even distribution of the inoculum. The discs measuring 6 mm in diameter were prepared from Whatman No. 1 filter paper and sterilized by dry heat at 140° C. for 1 h. The sterile discs previously soaked in known concentration of the tested compounds were placed in Sabouraud dextrose Agar (SDA) plates. The plates were inverted and incubated at 35° C. for 7 days. The susceptibility was assessed on the basis of diameter of inhibition against albicans and non-albicans strain of fungi.

[2] = test system: Aspergillus Flavus; test: Minimum inhibitory concentration, serial broth dilution (fungus)
Method: (§1) Minimum inhibitory concentrations (MICs) are defined as the lowest concentration of an antimicrobial that will inhibit the visible growth of a microorganism after overnight incubation. MICs are used by diagnostic laboratories mainly to confirm resistance of microorganism to antimicrobial agents and also to monitor the activity of new antimicrobial agents. MIC was determined in vitro in liquid medium by serial broth dilution method.

[3] = test system: Pseudomonas aeruginosa; test: Antibacterial screening, agar well diffusion method; settings: 24 hours at 37° C.
Method: The susceptibilities of such growth rate of microorganisms were measured in vitro by agar well diffusion method. The tested nano complex was dissolved in dimethylsulfoxide at different concentrations (10 and 20 mg/ml). 1 cm^3 of a 24 h broth culture containing 10^6 CFU/cm^3 was placed in sterile Petri-dishes. Molten nutrient agar (15 cm^3) maintained at 45° C. was then poured into the Petri-dishes and allowed to solidify. Then holes of 6 mm diameter were formed in the agar using a sterile cork borer and these holes were completely filled with the test solutions. The plates were incubated for 24 hours at 37° C. After the incubation period, the zone of inhibition of each well was determined by measuring the zones of growth inhibition (mm) against the test microorganisms with zone reader (Hi Antibiotic zone scale). […] The measurements were made in triplicate for each compound and their average values are reported.

[4] = test system: Pseudomonas aeruginosa; test: Minimum inhibitory concentration, serial broth dilution (bacteria)
Method: as §1

[5] = test system: Colon cancer cells line; test: Cytotoxic activity, Sulfo-Rhodamine-B-stain (SRB) assay; settings: colon cancer cell line, 48 hrs
Method: The anticancer activity was made at the National Cancer Institute, Cancer Biology Department, Pharmacology Department, Cairo University. The absorbance or optical density (O.D.) of each well was measured spectrophotometrically at 564 (nm) with an “ELIZA” micro plate reader (Meter tech. Σ 960, “USA”). Evaluation of the cytotoxic activity of the prepared nano-complex was carried out against Colon cancer cells line. The evaluation process was carried out in vitro using the Sulfo-Rhodamine-B-stain (SRB). Cells were placed in 96-multiwell plate (10^4 cells/well) for 24 hrs before processing with the complexes to allow attachment of cell to the wall of the plate. Various concentrations of the compounds under test in DMSO (0, 1, 2.5, 5 and 10 µM) were added to the cell monolayer. Monolayer cells were incubated with the complexes for 48 hrs at 37° C. and in atmosphere of 5% CO2. After 48 hrs, cells were fixed, rinsed, and stained with Sulfo-Rhodamine-B-stain. Excess stain was washed with acetic acid and attached stain was treated with Tris EDTA buffer. Color intensity was measured in an ELISA reader. IC50 was evaluated and potency was calculated with regard to percentage of change of (vistabline standard). The relation between surviving fraction and compound concentration is plotted to get the survival curve of each tumor cell line after the specified compound. […]

MIC ([4]; read-out: MIC) [µg/mL]	Compound	inhibition zone [1] [mm]	MIC [2] [µg/mL]	inhibition zone [3] [mm]	IC50 [5] [µM]	MIC [4] [µg/mL]
	OC(Cn1cncn1)(Cn1cncn1)c1ccc(F)cc1F [Flucazanol]	27	2.50 (≈ 8.16 µM)			
2.25 (≈ 6.23 µM)	CC1COc2c(N3CCN(C)CC3)c(F)cc3c(=O)c(C(=O)O)cn1c23 (stereo not drawn) [Ofloxacin]			38		
	CC[C@]1(O)C[C@@H]2CN(CCc3c([nH]c4ccccc34)[C@@](C(=O)OC)(c3cc4c(cc3OC)N(C)[C@H]3[C@@](O)(C(=O)OC)[C@H](OC(C)=O)[C@]5(CC)C=CCN6CC[C@]43[C@@H]65)C2)C1 [vinblastine]				5.7	
	[4{3,4-bis-[(5-bromo-2-hydroxy-benzylidene)-amino]-phenyl}-phenyl-methanone] Ru(III) complex [prepared nano complex]	30	2.00	42		1.5
